# Reference: US12527789B2, “Inhibition of a tripartite VOR protein complex in multicellular organisms” (TECHNISCHE UNIVERSITÄT DRESDEN, priority 2018, dated 2026)
# Tested on: nuclear pores and importin β1
# Assay: NEI-associated late endosomes and transfer of EV-derived components into the nucleoplasm after importazole treatment
# Type: cell-based
# Excerpt: Referring to FIGS. 1A, 1B and 1C, illustrated are schematic illustrations of data showing the localization and the tripartite structure of a VOR complex. […] Typically, EVs are transported to late endosomes after their endocytosis, wherein the EVs facilitate intercellular communication in diverse cellular processes.
smiles,measurement,setting,value
CC(Nc1nc(N2CCCC2)nc2ccccc12)c1ccccc1 (centres unmarked) [importazole],transfer of EV-derived components into the nucleoplasm of host cells,,inhibition of transfer of EV-derived components into the nucleoplasm of host cells
same,presence of nuclear envelope invagination (NEI)-associated late endosomes,host cells after importazole treatment,lack of the nuclear envelope invagination (NEI)-associated late endosomes
